Source: US20230146455A1, “TREATMENT OF INFLAMMATORY DISEASES WITH PEPTIDES AND PHARMACEUTICAL COMPOSITIONS” (Yuyu Pharma, Inc., priority 2020, published 2023)
Several values for one entry are separate records, joined by “and”; a condition that tells them apart may be missing. Equal entries are not always repeated. Where a SMILES comes first, the peptide text is derived from it. [ ]: non-standard residue; d: D form. Hyp = O=C(O)[C@@H]1C[C@@H](O)CN1

Test system: IL-1 alpha/IL-1F1
Assay: Example 8 main study Luminex, LPS hPBMCs: IL-1 alpha/IL-1F1
Type: cell-based, human
Description: Human PBMCs were pretreated with YY-101, YDE-011, YDE-043 or reference compound; Xiidra® at various concentration (ranging from […] to 500 nM) for 2 h before stimulation. An equal volume of 0.5% DMSO was used as a vehicle control. Then, the cells were treated with LPS at 5 ug/ml, which was selected based on the pilot study. The supernatants from treated cells were harvested at 24 h and placed in a 96 well for Luminex cytokine & chemokine profiling using a Luminex 200 multiplex assay (Luminex; R&D system, USA).
The main study arm with triplicate wells per group in a 24-well plate: • 1. Blank • 2. PBMC: 0.5% DMSO • 3. PBMC+LPS (5 ug/ml) • 4. PBMC+YY-101 500 nM • 5. PBMC+YY-101 50 nM • 6. PBMC+YY-101 5 nM • 7. PBMC+YY-101 0.5 nM • 8. PBMC+LPS (5 ug/ml)+Xiidra® 500 nM • 9. PBMC+LPS (5 ug/ml)+Xiidra® 50 nM • 10. PBMC+LPS (5 ug/ml)+Xiidra® 5 nM • 11. PBMC+LPS (5 ug/ml)+Xiidra® 0.5 nM • 12. PBMC+LPS (5 ug/ml)+Xiidra® 0.05 nM • 13. PBMC+LPS (5 ug/ml)+Xiidra® 0.005 nM • 14. PBMC+LPS (5 ug/ml)+YY-101 500 nM • 15. PBMC+LPS (5 ug/ml)+YY-101 50 nM • 16. PBMC+LPS (5 ug/ml)+YY-101 5 nM • 17. PBMC+LPS (5 ug/ml)+YY-101 0.5 nM • 18. PBMC+LPS (5 ug/ml)+YY-101 0.05 nM • 19. PBMC+LPS (5 ug/ml)+YY-101 0.005 nM • 20. PBMC+LPS (5 ug/ml)+YDE-011 500 nM • 21. PBMC+LPS (5 ug/ml)+YDE-011 50 nM • 22. PBMC+LPS (5 ug/ml)+YDE-011 5 nM • 23. PBMC+LPS (5 ug/ml)+YDE-011 0.5 nM • 24. PBMC+LPS (5 ug/ml)+YDE-011 0.05 nM • 25. PBMC+LPS (5 ug/ml)+YDE-011 0.005 nM • 26. PBMC+LPS (5 ug/ml)+YDE-043 500 nM • 27. PBMC+LPS (5 ug/ml)+YDE-043 50 nM • 28. PBMC+LPS (5 ug/ml)+YDE-043 5 nM • 29. PBMC+LPS (5 ug/ml)+YDE-043 0.5 nM • 30. PBMC+LPS (5 ug/ml)+YDE-043 0.05 nM • 31. PBMC+LPS (5 ug/ml)+YDE-043 0.005 nM
Multiplex assay was used to measure 30 cytokines and chemokines. The 1:200 diluted cell supernatant and serial dilution of the standard were dispensed into a 96 well plate at 50 ul/well. Then, the pre-mixed cocktail of antibody-coated magnetic beads was dispensed at 50 ul/well and incubated at room temperature for 2 h in a horizontal orbital microplate shaker at 800±500 rpm. The beads were washed using a magnetic device to prevent loss. The biotin-antibody was dispensed in 50 ul of each well and incubated at room temperature for 1 h in a shaker at 800±500 rpm. After washing, streptavidin-PE was added at 50 ul/well and incubated at room temperature for 30 min in a shaker under the same conditions. Finally, after washing, wash buffer (100 ul/well) was added to the plate and incubated in a shaker for 2 min. The Luminex™ 200 setting were set according to the manufacturer's protocol. The data was calculated with a standard five-parameter logistic nonlinear regression analysis of the data (xPonent software 4.2, USA). Results were presented as concentration (ng/ml or pg/ml).

[1] = PBMC + LPS(5 ug/ml) + test article 0.005 nM, individual replicates
[2] = PBMC + LPS(5 ug/ml) + test article 0.05 nM, Mean
[3] = PBMC + LPS(5 ug/ml) + test article 0.05 nM, individual replicates
[4] = PBMC + LPS(5 ug/ml) + test article 0.5 nM, Mean
[5] = PBMC + LPS(5 ug/ml) + test article 0.5 nM, individual replicates
[6] = PBMC + LPS(5 ug/ml) + test article 5 nM, Mean
[7] = PBMC + LPS(5 ug/ml) + test article 5 nM, individual replicates
[8] = PBMC + LPS(5 ug/ml) + test article 50 nM, Mean
[9] = PBMC + LPS(5 ug/ml) + test article 50 nM, individual replicates
[10] = PBMC + LPS(5 ug/ml) + test article 500 nM, Mean
[11] = PBMC + LPS(5 ug/ml) + test article 500 nM, individual replicates
[12] = PBMC + test article 0.5 nM, no LPS, Mean
[13] = PBMC + test article 0.5 nM, no LPS, individual replicates (1st, 2nd)
[14] = PBMC + test article 5 nM, no LPS, Mean
[15] = PBMC + test article 5 nM, no LPS, individual replicates (1st, 2nd)
[16] = PBMC + test article 0.05 uM, no LPS, Mean
[17] = PBMC + test article 0.05 uM, no LPS, individual replicates (1st, 2nd)
[18] = PBMC + test article 50 nM, no LPS, Mean
[19] = PBMC + test article 50 nM, no LPS, individual replicates (1st, 2nd)
[20] = PBMC + test article 500 nM, no LPS, Mean
[21] = PBMC + test article 500 nM, no LPS, individual replicates (1st, 2nd)

SMILES: CC(C)C[C@H](NC(=O)CNC(=O)[C@H](CC(=O)O)NC(=O)[C@H](CCC(N)=O)NC(=O)CNC(=O)[C@@H]1C[C@@H](O)CN1)C(=O)N[C@@H](C)C(=O)NCC(=O)N1CCC[C@H]1C(=O)N[C@@H](CCCCN)C(=O)O [YY-101] (H-[Hyp]GQDGLAGPK-OH; N-terminus and C-terminus assumed)
- IL-1 alpha/IL-1F1 MFI (PBMC + LPS(5 ug/ml) + test article 0.005 nM, Mean): 28.3
- IL-1 alpha/IL-1F1 Concentration [1]: 414.2 pg/mL and 383.2 pg/mL and 475.3 pg/mL
- IL-1 alpha/IL-1F1 MFI [1]: 28.0 and 27.0 and 30.0
- IL-1 alpha/IL-1F1 Concentration [2]: 479.4 pg/mL
- IL-1 alpha/IL-1F1 MFI [2]: 30.2
- IL-1 alpha/IL-1F1 Concentration [3]: 414.2 pg/ml (2×) and 609.8 pg/ml
- IL-1 alpha/IL-1F1 MFI [3]: 28.0 (2×) and 34.5
- IL-1 alpha/IL-1F1 Concentration [4]: 455.0 pg/mL
- IL-1 alpha/IL-1F1 MFI [4]: 29.3
- IL-1 alpha/IL-1F1 Concentration [5]: 460.1 pg/ml (2×) and 444.9 pg/ml
- IL-1 alpha/IL-1F1 MFI [5]: 29.5 (2×) and 29.0
- IL-1 alpha/IL-1F1 Concentration [6]: 485.3 pg/mL
- IL-1 alpha/IL-1F1 MFI [6]: 30.3
- IL-1 alpha/IL-1F1 Concentration [7]: 444.9 pg/mL and 475.3 pg/mL and 535.6 pg/mL
- IL-1 alpha/IL-1F1 MFI [7]: 29.0 and 30.0 and 32.0
- IL-1 alpha/IL-1F1 Concentration [8]: 429.2 pg/mL
- IL-1 alpha/IL-1F1 MFI [8]: 28.5
- IL-1 alpha/IL-1F1 Concentration [9]: 383.2 pg/mL and 398.7 pg/mL and 505.6 pg/mL
- IL-1 alpha/IL-1F1 MFI [9]: 27.0 and 27.5 and 31.0
- IL-1 alpha/IL-1F1 Concentration [10]: 449.6 pg/mL
- IL-1 alpha/IL-1F1 MFI [10]: 29.2
- IL-1 alpha/IL-1F1 Concentration [11]: 460.1 pg/mL and 505.6 pg/mL and 383.2 pg/mL
- IL-1 alpha/IL-1F1 MFI [11]: 29.5 and 31.0 and 27.0
- IL-1 alpha/IL-1F1 Concentration [12]: 155.5 pg/mL
- IL-1 alpha/IL-1F1 MFI [12]: 20.0
- IL-1 alpha/IL-1F1 Concentration [13]: 155.5 pg/mL
- IL-1 alpha/IL-1F1 MFI [13]: 20.0
- IL-1 alpha/IL-1F1 Concentration [14]: 155.5 pg/mL
- IL-1 alpha/IL-1F1 MFI [14]: 20.0
- IL-1 alpha/IL-1F1 Concentration [15]: 155.5 pg/mL
- IL-1 alpha/IL-1F1 MFI [15]: 20.0
- IL-1 alpha/IL-1F1 Concentration [16]: 92.0 pg/mL
- IL-1 alpha/IL-1F1 MFI [16]: 18.3
- IL-1 alpha/IL-1F1 Concentration [17]: 45.8 pg/mL and 138.1 pg/mL
- IL-1 alpha/IL-1F1 MFI [17]: 17.0 and 19.5
- IL-1 alpha/IL-1F1 Concentration [18]: 111.1 pg/mL
- IL-1 alpha/IL-1F1 MFI [18]: 18.8
- IL-1 alpha/IL-1F1 Concentration [19]: 138.1 pg/mL and 84.2 pg/mL
- IL-1 alpha/IL-1F1 MFI [19]: 19.5 and 18.0
- IL-1 alpha/IL-1F1 Concentration [20]: 84.2 pg/mL
- IL-1 alpha/IL-1F1 MFI [20]: 18.0
- IL-1 alpha/IL-1F1 Concentration [21]: 84.2 pg/mL
- IL-1 alpha/IL-1F1 MFI [21]: 18.0
